Source: a melting point compilation (Tetko et al.; mined from patent text by program, amines drawn as free bases though some values may be those of a salt)

Row | melting point [°C] | SMILES
1 | 203 to 204 | CC1=NN=C(N2N=C(c3ccc([N+](=O)[O-])cc3)c3cc4c(cc3CC2C)OCO4)SC1 (centres undefined)
2 | 103 to 104 | O=C1CCCNc2ccc(Cl)cc21
3 | 139 to 141 | Nc1nc(OS(=O)(=O)c2ccccc2)ncc1F
4 | 143 to 144 | Cc1cc(C(c2cc(C)sc2C)c2cc(C)sc2C)c(C)s1
5 | 130 to 134 | COc1cc([N+](=O)[O-])c2nc(OCc3ccc(Cl)cc3)ccc2c1
6 | 143 to 145 | CCOC(=O)c1cnc2c(c(C)nc3cc(C)nn32)c1Cl
7 | 115 | CN1CCCC1=C(C#N)C(=O)c1ccc(Cl)cc1
8 | 72 to 75 | CCCc1c(OCC2COc3cc(CC(=O)OC)ccc3O2)ccc(C(C)=O)c1O (centres undefined)
9 | 157 to 159 | CCCCCCCCCCCCCCCCOCC(COP(=O)(O)O)OCCCCCCCCCCCCCCCC (centres undefined)
10 | 161 to 163 | COC(=O)C1C=CCN2C(=O)C(CCOS(C)(=O)=O)(Cc3ccccc3)C(=O)N12 (centres undefined)
11 | 205 to 208 | O=C(CC1CCCC1)NC[C@H]1CN(c2ccc3c(c2)CCCc2cn[nH]c2-3)C(=O)O1
12 | 138 to 141 | O=C(COc1ccc(CN2CCOCC2)cc1)N1CCN(c2ccc(N3C[C@H](CNC(=S)C4CC4)OC3=O)cc2F)CC1
13 | 200 to 202 | CNc1c(C#N)c(C(F)(F)F)nn1-c1c(Cl)cc(C(F)(F)F)cc1Cl
14 | 146 to 148 | Cc1ccnc(C)c1Cn1nnnc1-c1cccc(Cl)c1Cl
15 | 85 to 86 | N[C@@H](Cc1cccc(OC(F)(F)C(F)F)c1)[C@H](O)c1ccc(Oc2ccccc2)cc1 (racemic)
16 | 153 to 155 | C[C@@H](CS(=O)C(F)(F)C(F)F)[C@](O)(Cn1cncn1)c1ccc(Cl)cc1Cl (some centres undefined)
17 | 116 to 117 | CSc1ncnn1C[C@]1(c2ccc(F)cc2F)O[C@@H]1c1ccccc1Cl (relative stereo)
18 | 219 to 221 | Cc1c(Cc2cccnc2)oc2ccc(C(=O)O)cc12
19 | 225 to 226 | COc1ccc(C=CC(=O)Nc2cccc(C(=O)O)c2)cc1OC
20 | 175 to 177 | COc1ccc(Cn2c3ncnc4c(ncn4Cc4ccc(OC)cc4)c-3nc2=O)cc1
21 | 191 to 192 | CCn1cnc2c(Nc3ccc(C(F)(F)F)cc3)nc(NCCO)nc21
22 | 48 to 51 | Cc1ccc(C(C(=O)C(C)C)c2ccc(C)cc2)cc1
23 | 198 to 199 | CCOc1ccc(C2C(C(=O)c3ccc(C(C)C)cc3)=C(O)C(=O)N2c2ccc(C)nn2)nc1 (centres undefined)
24 | 73 to 76 | COc1cc(C=CC(=O)CCCCCBr)cc(OC)c1
25 | 120 to 146 | CCOC(=O)NN=C(c1ccc(Cl)cc1)c1ccc(OC(=O)CC)cc1

Row | melting point [°C] | SMILES
26 | 263 to 265 | O=C(CN1c2ccccc2Cn2c1nc(-c1ccncn1)cc2=O)c1ccccc1
27 | 110 to 111 | OC(CSc1nccs1)(Cn1cncn1)c1ccc(Cl)cc1Cl (centres undefined)
28 | 149 to 159 | CCOC(=O)c1cnc2c(NC(=O)c3c(Cl)cccc3Cl)cccc2c1CC(=O)O
29 | 138 to 139 | Nc1nc(F)nc(OC(F)(F)F)n1
30 | 195 to 196 | COc1ccc2[nH]cc(C3=C(Cl)C(=O)C=C(Cl)C3=O)c2c1
31 | 112 to 114 | CC(C)C(=O)NC1=NC(=CCC(=O)Nc2ccc(Cl)cc2)CS1
32 | 166 to 167 | N#Cc1ccccc1Sc1ccccc1[N+](=O)[O-]
33 | 151 | O=C[C@H](OCc1ccccc1)[C@@H](OCc1ccccc1)[C@H](OCc1ccccc1)[C@H](O)COCc1ccccc1
34 | 99 to 104 | O=C1CC(c2ccc(F)cc2)CC(=O)O1
35 | 181 to 185 | O=C1OCc2ccccc2C1=NO
36 | 78 to 80 | c1ccc(-c2cc3ccccc3n2-c2ccccc2)cc1
37 | 100 to 101 | Cc1c(C)c2c(c([N+](=O)[O-])c1C)OC(C)(C)C2
38 | 256 to 257 | O=C(O)c1ccc2c(c1)CCc1ccc(O)cc1C2=O
39 | 131 to 132 | O=C(Nc1cccc2cc(C(=O)N3CCCCC3)[nH]c12)c1cccs1
40 | 245 | O=C(O)c1nn(-c2ccc(Cl)cc2Cl)c2c1CCc1cc(C(F)(F)F)ccc1-2
41 | 191 to 193 | CCOC(=O)c1[nH]c2cc3c(sc4ccccc43)c(C)c2c1C
42 | 148 to 151 | N#CCc1cccc(Cc2nc3c(F)c(F)cc(F)c3s2)c1Cl
43 | > 300 | CCOC(=O)c1cnc2ccc(C(=O)c3ccc(Cl)cc3)cc2c1O
44 | 233 to 235 | Cc1cc(C=CC#N)cc(C(=O)c2[nH]c(=O)[nH]c(=O)c2C(C)C)c1
45 | 146 to 149 | Nc1sc2c(c1C(=O)c1ccc3c(c1)Cc1ccccc1-3)CCCC2
46 | 178 to 180 | CNC1=NC2(O)c3ccc(OCC(F)(F)C(F)(F)C(F)(F)F)cc3CC2S1 (centres undefined)
47 | 147 to 149 | CC(Oc1ccc(Cl)cc1)c1nnc(N2C(=O)N(C)CC2O)s1 (centres undefined)
48 | 105 to 113 | CCCn1cc(Cc2ccc(C(=O)O)cc2OC)c2cc(CCNC(=O)N3CCOCC3)ccc21
49 | 134 to 136 | Cc1nc2ccc(OCCCN3CCC(OC(c4ccccc4)c4ccccc4)CC3)nn2n1
50 | 285 | O=C(O)c1cncc2cccc([N+](=O)[O-])c12

Row | melting point [°C] | SMILES
51 | 143 to 144 | FC(F)(F)Sc1ccc2c(c1)C(=C1CCN(CC3CC3)CC1)c1ccccc1C=C2
52 | 110 | CCOC(=O)C1=C(C)N(C2CC2)C(C)=C(C(=O)OC)C1c1ccc(C(F)(F)F)cc1 (centres undefined)
53 | 91 to 95 | NC(=O)[C@@H]1CCCN1C(=O)CNP(=O)(Cc1ccccc1)Cc1ccccc1
54 | 110 to 111 | Cc1c(C(=O)c2cccnc2)sc2cc(Br)ccc12
55 | 228 to 230 | COc1ccc(NC(=O)c2ccc(Cl)c(Cl)c2)cc1NS(=O)(=O)c1ccc(C)cc1
56 | 52 | C=C(Cn1cncn1)Cn1cncn1
57 | 146 to 147 | COc1ccc(CC(=O)NC(NC(=NC#N)Nc2cccnc2OC)C(C)(C)C)cc1OC (centres undefined)
58 | 181 to 182 | COc1cc(CN2C(C(=O)O)=C(c3ccc4c(c3)OCO4)c3ccccc3S2(=O)=O)cc2c1OCO2
59 | 114 | CC1(C)CCC(C)(C)c2cc(C=O)c(Br)cc21
60 | 134 to 136 | COc1ccc(CSc2nnc(-c3ccc4occc4c3)o2)cc1F
61 | 251 to 253 | CN(C)S(=O)(=O)c1ccc2c(c1)S(=O)(=O)N=C1CCCN12
62 | 157 to 159 | Cn1c(-c2ccccc2S(C)=O)nc2ccccc21 (centres undefined)
63 | 141 to 142 | CCC(CC)N(O)C(=O)Nc1ccccc1Oc1ccccc1
64 | 228 to 229 | CC(=O)Nc1cc(-c2c(-c3cccc(C)c3)nc3ccc(Cl)nn23)ccn1
65 | 195 to 198 | COC(=O)C1CCC2C3CCC4CC(O)C(Br)CC4(C)C3CCC12C (centres undefined)
66 | 160 to 162 | C=Cc1cc(C)cc(C)c1CC(=O)N(C)C1(C(=O)OC)CCN(OC)CC1
67 | 196 to 199 | COc1ccc2c(c1)C(c1ccc(O)cc1)c1c-2ccc2cc(OC)ccc12 (centres undefined)
68 | 160 to 165 | CCCNC(=O)NS(=O)(=O)c1ccccc1-c1ccc(Cn2c(CCC)nc(C)c2C(=S)OCC)cc1
69 | 103 to 107 | Nc1nc2c(s1)CCN(CC=Cc1ccccc1OCc1ccccc1)CC2
70 | 113 to 115 | CC(=O)c1ccc(NC(=O)C(C)(C)C)nc1
71 | 141 to 143 | COc1ccc(CCC(=O)O)c(Cl)c1Cl
72 | 120 to 122 | CCc1noc(-c2cn(-c3cccc(Oc4ccc(Cl)cc4)c3)cn2)n1
73 | 210 | COc1ccc(Nc2ccnc(Nc3cc(OC)c(OC)c(OC)c3)n2)cc1
74 | 253 to 254 | NC(=O)c1nc[nH]c1F
75 | 132 to 133 | Fc1cc(F)c(-c2c(F)nnc(F)c2-c2ccc(Br)cc2)c(F)c1

Row | melting point [°C] | SMILES
76 | 126 to 130 | O=C(O)CCSCc1nccc2ccccc12
77 | 130 to 132 | COC(=O)C(C)(C)OCc1cc2cc(C(F)(F)F)ccc2n1S(=O)(=O)c1cc(OC)ccc1OC
78 | 188 to 189 | CC(=O)c1cc(I)cc(S(N)(=O)=O)c1
79 | 97 | O=C(O)c1ccccc1OCCN1CCC(c2cn(CC3CC3)c3cc(F)ccc23)CC1
80 | 250 to 253 | CC12CCC3c4ccc(C(=O)O)cc4CCC3C1CCC2C(=O)CCC1CCCCC1 (centres undefined)
81 | > 250 | CC(CC1CNc2nc(N)nc(O)c2C1)c1ccc(C(=O)N[C@@H](CCC(=O)O)C(=O)O)cc1 (some centres undefined)
82 | 193 to 194 | O=C(N[C@H](Cc1cccc(C(F)(F)F)c1)[C@@H](O)c1ccc(F)cc1)c1ccc(F)c2ccccc12 (racemic)
83 | 140 to 141 | Cc1nc2n(c(=O)c1CCCl)CCCC2OCc1ccccc1 (centres undefined)
84 | 73 to 75 | CCOc1ccccc1O[C@@H]1CN(CC)C[C@H]1O (relative stereo)
85 | 116 to 117 | N#Cc1ccccc1Sc1nsc2ccccc12
86 | 204 to 205 | O=C(NCCc1ccc([N+](=O)[O-])cc1)Nc1ccc(Nc2ccccc2)cc1
87 | 41 to 42 | COC(=O)CCc1cc([N+](=O)[O-])c(O)c(C(C)(C)C)c1
88 | 168 to 170 | CC1(C)Oc2ccc(C#N)cc2[C@@H](NC(=O)Nc2cccc(-c3ncno3)c2)[C@@H]1O
89 | 70 to 71 | CCCCCCCCCCCCn1c2cc(Cl)ccc2c2ccc(Cl)cc21
90 | > 300 | O=c1c2cc(F)c(F)cc2[nH]c2c1cnn2-c1ccccn1
91 | 91 to 93 | C=Cc1ccc(C(=O)OC)[nH]1
92 | 103 | N#Cc1ccc(CC23CCCN2C(=O)N(c2cc(Cl)c(N)c(Cl)c2)C3=O)cc1 (centres undefined)
93 | 218 | COC(=O)c1cc(C(=O)c2ncc3ccccn23)ccc1NC(=O)c1ccccc1
94 | 173 to 174 | CCOCc1nc2c(N)nc3cc(-c4ccccc4)cnc3c2n1CC(C)(C)F
95 | 195 to 197 | COc1ccc2c(c1)C(=O)c1ccccc1C2=O
96 | 181 to 182 | CC(O)C(=O)Nc1ccc(C2=NNC(=O)CC2C)cc1 (centres undefined)
97 | 169 to 171 | CC(C)c1ccc(N(Cc2ccc(N(C)C)cc2)C(=O)C2CCCc3cc(O)ccc32)cc1 (centres undefined)

Row | SMILES | melting point [°C]
98 | CN1Cc2c(C(N)=NO)ncn2-c2cccc(Cl)c2C1=O | > 250
99 | NC1=Nc2ccc([N+](=O)[O-])cc2C(c2ccccc2Cl)=NC1 | 222 to 224
